From US7094809B2, “Method of treating subject infected with Neisseria gonorrhea” (Northeastern Ohio Universities College of Medicine, priority 2000, dated 2006)

Columns and labels:
Vero cells [1] = assay: Cell viability studies, uninfected Vero cells; type: cell-based, African green monkey; settings: 105 μM, 24 hours
Protocol: Cell viability studies confirmed that treatment of uninfected Vero cells with 105 μM 4,4′-dihydroxytolan for 24 hours was not toxic.

HSV-1 [2] = assay: Direct inactivation of HSV-1 inoculum, residual pfu by plaque assay; type: cell-based; settings: 105 μM, room temperature, 1 to 60 minutes, data not shown
Protocol: To determine whether hydroxylated tolans block formation of infectious herpes virus particles by directly inactivating the virus, a standard inoculum of HSV-1 was mixed with 105 μM 4,4′-dihydroxytolan in medium, with 0.2% DMSO in medium, or with media alone and placed at room temperature. The number of residual pfu's present at 1, 10, 30, and 60 minutes after addition of each respective solution to the virus was determined by plaque assay.

HSV-1 [3] = assay: HSV-1 plaque assay, infected Vero cells, moi 1 (Example 3); type: cell-based
Protocol: Cultures of African green monkey kidney cells (Vero) cells, obtained from the American Type Culture Collection, Rockville, Md. were grown to confluence in Medium 199 supplemented with 5% fetal bovine serum, 0.075% NaHCO3, and 50 μg/ml gentamycin sulfate in 25 cm^2 tissue culture flasks. Cells were infected with HSV-1 at a multiplicity of infection (moi) of one and incubated at room temperature for one hour to allow for virus attachment to and penetration of the cell. Under these conditions, approximately half of the cells are infected with virus. Thereafter, the cultures were rinsed three time with media and incubated in medium containing 50 μM or 75 μM 4, 4′-dihydroxytolan prepared in 0.2% dimethyl-sulfoxide (DMSO). Controls were treated identically, but were incubated without the dihyroxylated tolan. For purposes of comparison, HSV cell were also inoculated in the presence of 52.5 μM 4,4′-dihydroxystilbene. Due to the higher cell toxicity of the stilbene, cells were not incubated in the presence of 75 μM dihydroxystilbene.
Upon addition of the medium to the cultures and at 24 hours time periods thereafter, i.e., 0 hours, 24 hours, 48 hours, and 72 hours after addition of the drug, cells and medium were frozen at −70° C. Samples were then thawed, sonicated and titrated on Vero cells to determine the number of plaque forming units (pfu's) of virus produced by each culture.

ICP-27 = assay: Western blot of ICP-27 in HSV-1 infected Vero cells; type: cell-based; settings: 105 μM, 24 hours
Protocol: (§1) ICP-4 and ICP-27 are immediate-early regulatory proteins of HSV-1 that are required for efficient replication of this virus. To determine whether ICP-4 or ICP-27 production is altered by treatment with a hydroxylated tolan, separate cultures of Vero cells were infected with HSV-1 at an moi of 1 and incubated in control medium or medium containing 105 μM 4,4′-dihydroxytolan for 24 hours. Infected cells were scraped from the flask, collected by centrifugation, and resuspended in cold tris-buffered saline, pelleted by centrifugation, and the cell pellet frozen at −70° C. Proteins were extracted from the thawed pellets, separated by 6–15% SDS-PAGE, and assayed on a Western blot by reacting with mouse monoclonal antibody to ICP-4 or ICP-27 from Goodwin Institute for Cancer Research Inc., FL.

Vero cells [4] = assay: MTT colorimetric cell toxicity assay; type: cell-based, African green monkey
Protocol: Cell toxicity of the tolans 4,4′-dihydroxytolan (“Tolan-5”), 3,4′,5-trihydroxytolan (“Tolan-10”) and 4-hydroxy-4′-trifluoromethyltolan (“Tolan-11”) was determined using an MTT assay. In this assay, cells are exposed to MTT, 3-(4,5-dimethylthiazol-2-yl)-2,5-diphenyltetrazolium bromide, which is taken into the cells and reduced by mitochondrial dehydrogenase to a purple formazan, a large molecule which is unable to pass through intact cell membranes, and therefore accumulates in healthy cells. The ability of cells to reduce MTT is an indication of mitochondrial integrity and activity, which may be interpreted as a measure of viability. Solubilization of the cells results in the liberation of the product which can readily be detected spectrophotometrically.
Various concentrations of Tolan-5, Tolan-10 and Tolan-11 were added to 96 well tissue culture plates that had been seeded with Vero cells. The plates were then incubated at 37° C. in 5% CO2/95% air for 24, 48 and 72 hours. At the end of each time point, 50 μl of MTT (1 mg/ml) was added to the tissue culture plates which were then incubated for an additional four hours. At the end of that time, dimethyl sulfoxide (DMSO) was added to dissolve the cells and formazan, and the plates were read spectrophotometrically at 540 nm. […] Presented in Table I below are the toxicity results for Tolan-5, Tolan-10, and Tolan-11 measured at 24, 48 and 72 hours of treatment.

HSV-1 [5] = assay: Reversibility of inhibition of HSV replication, Vero cells, moi 1 (Example 5); type: cell-based; settings: 105 μM
Protocol: Vero cells were grown to confluence and infected with HSV-1 at an moi of 1 and then incubated in media lacking a hydroxylated tolan (control cultures) or in media containing 105 μM 4,4′-dihydroxytolan. One set of infected cells was maintained in the dihydroxylatedtolan for a period of 72 hours. In another set of infected cells the dihydroxytolan-containing media was replaced with media lacking a hydroxylated tolan at 24 hours. In another set of cells the tolan-containing media was replaced with media lacking the hydroxylated tolan at 48 hours after infection. The number of infectious HSV particles produced by each set of infected cells was determined by plaque assay.

ICP-4 = assay: Western blot of ICP-4 in HSV-1 infected Vero cells; type: cell-based; settings: 105 μM, 24 hours
Protocol: as §1

HSV-1 [6] = assay: HSV-1 plaque assay, time of drug addition, Vero cells, moi 10 (Example 4); type: cell-based
Protocol: Vero cell cultures were infected with HSV-1 as described above in Example 3 except that the cells were infected with virus at an moi of 10. Under these conditions nearly all of the cells are infected with virus during the initial one hour incubation period. Following removal of unattached virus, the virally-infected cultures were incubated in control medium lacking a hydroxylated tolan or medium to which 105 μM 4,4′-dihydroxytolan had been added at 1, 3, 6, or 9 hours after removal of the unattached virus. At 24 hours after infection, the number of pfu's present in the cells and medium of untreated and hydroxylated tolan-treated cultures was determined.

HSV-1 [7] = assay: Inhibition of HSV-1 replication in vitro, plaque assay (Example 9); type: cell-based
Protocol: Tissue culture cells were infected with HSV-1 and incubated in solutions containing Tolan-5, Tolan-10 and Tolan-11. The concentrations used ranged from one-half to three-quarters of the calculated CD50 for the respective tolan at 48 hours of treatment. Specifically, Vero cells were infected with HSV-1 at a multiplicity of infection of one for one hour. At the end of that time, the cultures were rinsed with media and fresh media containing various concentration of the respective tolan were added. Infected control cultures were incubated in media lacking hydroxylated tolan. At 1, 24, 48, and 72 hours after infection, samples were frozen at −70° C. until assayed for new virus production. Virus production was quantified by the plaque assay for each time point of infection. The results, which are expressed as plaque forming units per milliliter (pfu/ml).

`Oc1ccc(C#Cc2ccc(O)cc2)cc1` [Tolan-5, 4,4′-dihydroxytolan] was tested, and the “toxicity to uninfected Vero cells” value (Vero cells [1]) was “not toxic”, the “direct inactivation of HSV” value (HSV-1 [2]) was “did not directly inactivate HSV” and the “reduction of new virus production” value (HSV-1 [3]; 50 μM) was 95%. For the same compound, the “infectious HSV particles in cultures” value (HSV-1 [3]; 75 μM continuously, by 72 hours) was “virtually undetectable”, the inhibition at 75 µM (HSV-1 [3]; Human alphaherpesvirus 1, 75 μM, 24 hours, Vero cells, moi 1, read-out: inhibition of formation of infectious virus particles) was over 99% and the “synthesis of ICP-27” value (ICP-27) was “significantly reduced”. For the same compound, the CD50 (Vero cells [4]; 48 hours) was 106 µM, the CD50 (Vero cells [4]; 72 hours) was 84.0 µM and the “reversibility of inhibitory effect on HSV replication” value (HSV-1 [5]; drug removed at 24 or 48 hours) was “reversible”. For the same compound, the “cell killing on prolonged exposure” value (HSV-1 [5]; prolonged period of time, mammalian cells) was “does not kill the cells”, the “synthesis of ICP-4” value (ICP-4) was “significantly reduced” and the “inhibition of production of virus” value (HSV-1 [6]; 105 μM added 6 hours after infection, pfu at 24 hours, moi 10) was “approximately 90%”. The “reduction of production of virus” value (HSV-1 [6]; 105 μM added one hour after infection, pfu at 24 hours, moi 10) was “more than 99%”, the inhibition at 105 µM (HSV-1 [6]; Human alphaherpesvirus 1, Vero, 105 μM added 3 hours after infection, pfu at 24 hours, moi 10, read-out: inhibition of production of virus) was about 90% and the “formation of infectious virus particles” value (HSV-1 [6]; added 9 hours after infection) was “not inhibited”. The “inhibition of virus, comparison of concentrations” value (HSV-1 [7]; 75 μm versus 50 μm) was “more inhibitory to the virus at 75 μm that at 50 μm” and the HSV-1 production (HSV-1 [7]; Vero cells, moi 1, up to 72 hours) was “inhibited HSV-1 production”.
